Data published in patent US10287267B2, “Isoquinolin-3-yl carboxamides and preparation and use thereof” (Samumed, LLC, priority 2016, dated 2019).

What was measured:
recombinant GSK3β kinase = recombinant GSK3β kinase (Homo sapiens (Human), UniProt P49841); assay: GSK3β kinase assay (Ser/Thr 09 peptide Z-lyte FRET); type: biochemical; conditions: 46 μM ATP, 1 h room temperature;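 further: kinase activity read as coumarin to fluorescein emission ratio, 11-point threefold dilutions from 10 µM to 0.0003 µM in duplicate, unphosphorylated and phosphorylated peptide as 0% and 100% controls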
[1] = tested on: SW480 colon carcinoma cells; assay: Cell viability assay (CellTiter-Glo); type: cell-based, human; conditions: Homo sapiens; for EC50: 96 h, SW480 cells, CellTiter-Glo, four days incubation; for inhibition at 10 µM: SW480, read-out: percent inhibition at 10 μM
[2] = biological target: recombinant DYRK1A kinase (Homo sapiens (Human), UniProt Q13627); assay: DYRK1A kinase assay (Ser/Thr 18 peptide Z-lyte FRET); type: biochemical; conditions: 30 μM ATP, 1 h room temperature;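 further: Read-out is the coumarin to fluorescein emission ratio, referenced to unphosphorylated (0%) and phosphorylated (100%) Ser/Thr 18 peptide controls, values from dose-response curves by non-linear regression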
[3] = tested on: Wnt pathway (Sp5-Luc reporter, TCF/LEF binding sites) in SW480 colon carcinoma cells; assay: Screening assay for Wnt activity: Sp5-Luc reporter gene assay; type: cell-based, human; conditions: Homo sapiens; for EC50: Sp5-Luc reporter, SW480 cells, 36 to 48 hours; for inhibition at 10 µM: SW480, read-out: percent inhibition at 10 μM;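 on all read-outs here: firefly luciferase luminescence read in stably transduced SW480 cells carrying the Sp5 promoter reporter with eight TCF/LEF sites, compounds given in 0.1% DMSO final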
Experimental: The screening assay for Wnt activity is described as follows.
Following incubation, 15 μl of BriteLite Plus luminescence reagent (Perkin Elmer) was added to each well of the 384-well assay plates. The plates were placed on an orbital shaker for 2 min and then luminescence was quantified using the Envision (Perkin Elmer) plate reader.

[4] = tested on: α-smooth muscle actin (αSMA) positive LL29 cells; assay: Inhibition of fibrotic process: αSMA in TGF-β1 treated primary human fibroblasts from IPF patients; type: cell-based; conditions: Homo sapiens, Fibroblast, 96 h; Table 8; LL29 fibroblasts from IPF patients, TGF-β1 20 ng/mL, 4 days; dose-response 10 μM to 0.94 nM;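 further: controls were TGF-β1 stimulated wells with DMSO vehicle (positive) and cells given DMSO alone (negative), cultured in F12 medium with 1% fetal bovine serum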
IL-6 = IL-6 inhibition in LPS-stimulated human peripheral blood mononuclear cells (HTRF); type: cell-based; conditions: Homo sapiens, PBMC; for EC50: Table 9, huPBMCs, LPS 50 ng/mL, 22 hours, dose-response starting from 10 μM;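 on all read-outs here: IL-6 detected by HTRF with an XL665- and Cryptate-labelled anti-IL-6 antibody pair, samples run in duplicate, EC50 obtained from a four-parameter Levenberg-Marquardt curve fit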
Experimental: After 22 hour incubation, a mixture of anti-IL6 XL665 and anti-IL-6 Cryptate diluted in reconstitution buffer (Catalog #62IL6PEC, Cisbio Inc., Bedford, Mass.) was added to each well. […] All samples were processed in duplicate. […] EC50 was determined using software generated by Dotmatics Limited (Windhill Bishops Stortford Herts, UK) using the Levenberg-Marquardt 4 parameter fitting procedure with finite different gradients.

Sequence of recombinant GSK3β kinase (P49841 whole entry): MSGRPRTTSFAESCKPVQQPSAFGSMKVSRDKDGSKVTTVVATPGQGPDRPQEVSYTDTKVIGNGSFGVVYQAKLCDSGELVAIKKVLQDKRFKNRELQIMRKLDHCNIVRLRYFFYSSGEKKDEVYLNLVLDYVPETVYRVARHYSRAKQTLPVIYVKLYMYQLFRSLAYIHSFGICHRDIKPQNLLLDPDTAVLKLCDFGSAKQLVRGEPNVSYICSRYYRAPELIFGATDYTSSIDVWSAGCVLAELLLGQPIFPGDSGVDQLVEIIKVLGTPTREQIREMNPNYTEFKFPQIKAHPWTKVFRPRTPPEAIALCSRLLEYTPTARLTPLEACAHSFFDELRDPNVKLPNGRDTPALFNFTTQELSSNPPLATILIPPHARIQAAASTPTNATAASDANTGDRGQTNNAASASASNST

Structure (SMILES)	EC50 (recombinant GSK3β kinase) [µM]	EC50 [1] [µM]	EC50 [2] [µM]	EC50 [3] [µM]	EC50 [4] [µM]	EC50 (IL-6) [µM]	inhibition at 10 µM [1] [%]	inhibition at 10 µM [3] [%]	inhibition at 10 µM (IL-6; read-out: percent value in parentheses beside EC50 >10 μM) [%]
Cc1ncc(-c2ccc3cnc(NC(=O)C4CCCCC4)cc3c2)n1C [Compound 120, N-(6-(1,2-Dimethyl-1H-imidazol-5-yl)isoquinolin-3-yl) cyclohexanecarboxamide]	0.138	2.49	0.0048	2.21	2.13	2.29	–	–	–
O=C(CN1CCCC1)Nc1cc2cc(-c3cn[nH]c3C(F)(F)F)ccc2cn1 [Compound 287, 2-(Pyrrolidin-1-yl)-N-(6-(5-(trifluoromethyl)-1H-pyrazol-4-yl)isoquinolin-3-yl)acetamide]	9.84	> 10	5.14	7.33	2.35	9.58	47.8	–	–
Cn1cc(-c2ccc3cnc(NC(=O)N4CN5CCC[C@@H]5C4=O)cc3c2)cn1 [Compound 362, (R)—N-(6-(1-Methyl-1H-pyrazol-4-yl)isoquinolin-3-yl)-1-oxotetrahydro-1H-pyrrolo[1,2-c]imidazole-2(3H)-carboxamide]	1.1	5.48	0.132	0.951	0.782	9.15	–	–	–
CN1CCC(n2cc(-c3ccc4cnc(NC(=O)C5CCCCC5)cc4c3)cn2)CC1 [Compound 969, N-(6-(1-(1-Methylpiperidin-4-yl)-1H-pyrazol-4-yl)isoquinolin-3-yl) cyclohexanecarboxamide]	7.61	2.89	0.05	3.93	0.935	9.12	–	–	–
CC#CC(=O)Nc1cc2cc(-c3cnn(C)c3)ccc2cn1 [Compound 1026, N-(6-(1-Methyl-1H-pyrazol-4-yl)isoquinolin-3-yl)but-2-ynamide]	0.508	0.554	0.005	0.513	2.25	9.52	–	–	–
Cn1cc(-c2ccc3cnc(NC(=O)[C@H]4CC[C@H](C(=O)O)CC4)cc3c2)cn1 [Compound 1032, trans-4-((6-(1-Methyl-1H-pyrazol-4-yl)isoquinolin-3-yl)carbamoyl) cyclohexane-1-carboxylic acid]	0.072	> 10	0.0012	> 10	–	3.32	34.7	27.4	–
CC(C)CN1CCC(F)(C(=O)Nc2cc3cc(-n4nccn4)ccc3cn2)CC1 [Compound 1073, N-(6-(2H-1,2,3-triazol-2-yl)isoquinolin-3-yl)-4-fluoro-1-isobutylpiperidine-4-carboxamide]	> 10	> 10	1.52	> 10	> 10	> 10	8.5	5.9	3.3
Cn1cc(-c2ccc3cnc(NC(=O)C45CC(CO)(C4)C5)cc3c2)cn1 [Compound 1083, 3-(Hydroxymethyl)-N-(6-(1-methyl-1H-pyrazol-4-yl)isoquinolin-3-yl) bicyclo[1.1.1]pentane-1-carboxamide]	0.914	0.901	0.0042	8.21	–	8.73	–	–	–
COC(=O)[C@H]1CC[C@H](C(=O)Nc2cc3cc(-c4cnn(C)c4)ccc3cn2)CC1 [Compound 1084, Methyl trans-4-((6-(1-methyl-1H-pyrazol-4-yl)isoquinolin-3-yl)carbamoyl) cyclohexane-1-carboxylate]	0.04	3.67	0.0017	3.41	–	0.752	–	–	–
[2H]c1nc(NC(=O)C2CCNCC2)cc2cc(-c3cnn(C)c3)ccc12 [Compound 1085, N-(6-(1-Methyl-1H-pyrazol-4-yl)isoquinolin-3-yl-1-d)piperidine-4-carboxamide]	0.083	1.24	0.0024	2.19	–	0.453	–	–	–
